According to patent publication US12275729B2 (Merck Sharp & Dohme LLC, priority 2017, dated 2025):

What follows are compounds tested against IDO1 (Homo sapiens, UniProt P14902) (assay: IDO1 Cellular Assay in HeLa Cells Stimulated with IFNγ). Details: about 48 hours, read-out: Hela IC50.
Type: cell-based

Sequence of IDO1 (P14902 whole entry): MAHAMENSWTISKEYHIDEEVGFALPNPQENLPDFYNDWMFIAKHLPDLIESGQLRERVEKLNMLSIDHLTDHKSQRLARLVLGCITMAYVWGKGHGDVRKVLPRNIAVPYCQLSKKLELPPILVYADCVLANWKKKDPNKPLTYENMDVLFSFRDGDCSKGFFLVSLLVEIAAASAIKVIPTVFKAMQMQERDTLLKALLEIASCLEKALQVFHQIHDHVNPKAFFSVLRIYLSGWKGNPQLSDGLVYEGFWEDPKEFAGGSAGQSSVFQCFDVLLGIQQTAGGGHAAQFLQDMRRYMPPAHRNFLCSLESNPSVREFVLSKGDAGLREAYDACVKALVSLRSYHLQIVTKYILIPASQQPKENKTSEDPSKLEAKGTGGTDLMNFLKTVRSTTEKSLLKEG

Point of comparison: `CC(NC(=O)c1ccc(F)cc1)c1ccc2c(n1)C(F)CCN2C(=O)C1CC1` (single isomer, unassigned) [Example 202, N-(1-(5-(cyclopropanecarbonyl)-8-fluoro-5,6,7,8-tetrahydro-1,5-naphthyridin-2-yl)ethyl)-4-fluorobenzamide], IC50 396 nM. Against it:
- CC(C(=O)Nc1ccc(F)cc1)c1ccc2c(n1)CCCN2C(=O)C1CCCCO1 (single isomer, unassigned) [Example 161, N-(4-fluorophenyl)-2-[5-(oxane-2-carbonyl)-5,6,7,8-tetrahydro-1,5-naphthyridin-2-yl]propanamide] — 71-fold lower, 5.6 nM
- CC(NC(=O)c1ccc(F)cc1)c1ccc2c(n1)C(=O)CCN2C(=O)C1CC1 (stereo not drawn) [Example 192, N-(1-(5-(cyclopropanecarbonyl)-8-oxo-5,6,7,8-tetrahydro-1,5-naphthyridin-2-yl)ethyl)-4-fluorobenzamide] — 2.1-fold higher, 825 nM
- CC(C)(C)OC(=O)N1CCCc2cc(C3(C(=O)NC45CC(C4)C5)CCC3)ccc21 [Example 119, tert-butyl 6-{1-[(bicyclo[1.1.1]pentan-1-yl)carbamoyl]cyclobutyl}-3,4-dihydroquinoline-1(2H)-carboxylate] — 4.5-fold lower, 87.6 nM
- CC(C(=O)Nc1ccc(F)cc1)c1ccc2c(c1)CCCN2C(=O)C1CCCCO1 (stereo not drawn) [Example 37, N-(4-fluorophenyl)-2-[1-(oxane-2-carbonyl)-1,2,3,4-tetrahydroquinolin-6-yl]propanamide] — 82-fold lower, 4.8 nM
- O=C(N1CCCc2cc(C3(C(=O)Nc4ccc(F)cn4)CCC3)ccc21)C1(F)CC1 [Example 99, 1-[1-(1-fluorocyclopropane-1-carbonyl)-1,2,3,4-tetrahydroquinolin-6-yl]-N-(5-fluoropyridin-2-yl)cyclobutane-1-carboxamide] — 24-fold lower, 16.8 nM
- CCn1ccc(C(=O)NCc2ccc3c(c2)CCCN3C(=O)c2cccc(Cl)c2)n1 [Example 24] — 4-fold lower, 99.8 nM
- O=C(Nc1ccc(F)cc1)C1(c2ccc3c(n2)CCN3c2ccccn2)CCC1 [Example 271, N-(4-fluorophenyl)-1-[1-(pyridin-2-yl)-2,3-dihydro-1H-pyrrolo[3,2-b]pyridin-5-yl]cyclobutane-1-carboxamide] — 36-fold lower, 10.9 nM
- O=C([C@H]1CCCO1)N1CCCc2nc(C3(C(=O)Nc4ccc(F)cc4)CCC3)ccc21 [Example 180, N-(4-fluorophenyl)-1-{5-[(2R)-oxolane-2-carbonyl]-5,6,7,8-tetrahydro-1,5-naphthyiridin-2-yl}cyclobutane-1-carboxamide] — 210-fold lower, 1.9 nM
- CC(NC(=O)c1ccc(F)cc1)c1ccc2c(n1)CCCN2C(=O)C1COC1 (stereo not drawn) [Example 142, 4-fluoro-N-{1-[5-(oxetane-3-carbonyl)-5,6,7,8-tetrahydro-1,5-naphthyridin-2-yl]ethyl}benzamide] — 3.9-fold higher, 1540 nM
- COC(=O)N1CCCc2nc(C3(C(=O)Nc4ccc(F)cc4)CC3)ccc21 [Example 222, methyl 6-{1-[(4-fluorophenyl)carbamoyl]cyclopropyl}-3,4-dihydro-1,5-naphthyridine-1(2H)-carboxylate] — 18-fold lower, 21.8 nM

Same assay, conditions: read-out: Hela IC50

Point of comparison: `COc1cccc(C(=O)NC(C)c2ccc3c(n2)CCCN3C(=O)OC2CC2)c1` (stereo not drawn) [Example 336, cyclopropyl 6-(1-(3-methoxybenzamido)ethyl)-3,4-dihydro-1,5-naphthyridine-1(2H)-carboxylate], IC50 973 nM. Against it:
- CC(NC(=O)c1ccc(F)cc1)c1ccc2c(n1)CCCN2c1ncccc1F (stereo not drawn) [Example 375, 4-fluoro-N-(1-(5-(3-fluoropyridin-2-yl)-5,6,7,8-tetrahydro-1,5-naphthyridin-2-yl)ethyl)benzamide] — 1.6-fold higher, 1530 nM
- CC(NC(=O)c1ccc(F)cc1)c1ccc2c(n1)CCCN2c1ccn2ncnc2n1 (stereo not drawn) [Example 370, N-(1-(5-([1,2,4]triazolo[1,5-a]pyrimidin-5-yl)-5,6,7,8-tetrahydro-1,5-naphthyridin-2-yl)ethyl)-4-fluorobenzamide] — 1.8-fold higher, 1800 nM
- CC(NC(=O)c1ccc(F)cc1)c1ccc2c(n1)CCCN2c1cccc(C(F)(F)F)n1 (stereo not drawn) [Example 354, 4-fluoro-N-(1-(5-(6-(trifluoromethyl)pyridin-2-yl)-5,6,7,8-tetrahydro-1,5-naphthyridin-2-yl)ethyl)benzamide] — 93-fold lower, 10.5 nM
